The values that follow come from patent publication US12492181B2, “Gem-disubstituted piperidine melanocortin subtype-2 receptor (MC2R) antagonists and uses thereof” (Crinetics Pharmaceuticals, Inc., priority 2019, dated 2025).

The structures appear in SMILES notation. Some results are limits rather than exact numbers.

T1 sequence (Q01718 whole entry): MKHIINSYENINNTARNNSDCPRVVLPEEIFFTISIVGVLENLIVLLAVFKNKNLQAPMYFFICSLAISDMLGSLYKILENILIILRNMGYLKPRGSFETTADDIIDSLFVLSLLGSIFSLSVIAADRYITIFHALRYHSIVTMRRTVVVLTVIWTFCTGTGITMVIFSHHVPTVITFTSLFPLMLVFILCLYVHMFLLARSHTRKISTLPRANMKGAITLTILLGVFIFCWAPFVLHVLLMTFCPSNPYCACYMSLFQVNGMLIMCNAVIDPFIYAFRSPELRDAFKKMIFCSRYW
T1 sequence (Q8TCY5 whole entry partner): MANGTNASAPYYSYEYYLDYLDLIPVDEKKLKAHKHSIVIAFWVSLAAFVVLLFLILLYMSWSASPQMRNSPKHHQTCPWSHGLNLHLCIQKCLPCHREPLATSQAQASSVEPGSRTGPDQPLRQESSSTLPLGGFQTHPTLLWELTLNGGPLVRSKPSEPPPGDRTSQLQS

The test concerns the target T1, hMC2 receptor (crude hMC2R membranes from CRE-bla-CHO-K1 cells stably expressing hMC2 receptor and hMRAP accessory protein) (Homo sapiens, UniProt Q01718).
T1 construct: crude membrane fractions
In words: hMC2 membrane binding assay ([125I]ACTH (1-39) Tyr23, SPA). The conditions noted are these: displacement of 0.2 nM [125I]ACTH (1-39) Tyr23 from hMC2R membranes, 1.5 hours at room temperature; read-out: MC2R binding potency. The procedure, abridged:
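Crude membranes from CRE-bla-CHO-K1 cells stably co-expressing hMC2R and hMRAP, premixed with WGA PVT SPA beads in pH 7.4 HEPES buffer (5 mM MgCl2, 1 mM CaCl2, 0.20% BSA, protease inhibitors). Compounds compete with [125I]ACTH(1-39) Tyr23, read by scintillation. Ki from non-linear regression.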
As to `CN1C[C@H](NC(=O)C2(c3ccc(-c4cccn4C)nc3)CCN(c3ccc(C(F)(F)F)cc3C#N)CC2)[C@@H](O)C1` [Compound 1-270, 1-[2-cyano-4-(trifluoromethyl)phenyl]-N-[(3S,4S)-4-hydroxy-1-methylpyrrolidin-3-yl]-4-[6-(1-methyl-1H-pyrrol-2-yl)pyridin-3-yl]piperidine-4-carboxamide], the Ki was less than 10 nM.
As to `CCOc1ncccc1-c1ccc(C2(C(=O)N[C@@H](C)CNC)CCN(c3ccc(C(F)(F)F)cc3C#N)CC2)cn1` [Compound 1-314, 1-[2-cyano-4-(trifluoromethyl)phenyl]-4-{2′-ethoxy-[2,3′-bipyridin]-5-yl}-N-[(2S)-1-(methylamino)propan-2-yl]piperidine-4-carboxamide], the Ki was less than 10 nM.
On to `CN1CC[C@H](NC(=O)C2(c3ccc(-c4ccccc4C4CC4)nc3)CCN(c3ccc(C(F)(F)F)cc3C#N)CC2)C1` [Compound 1-121, 1-[2-cyano-4-(trifluoromethyl)phenyl]-4-[6-(2-cyclopropylphenyl)pyridin-3-yl]-N-[(3S)-1-methylpyrrolidin-3-yl]piperidine-4-carboxamide], for which the Ki is less than 10 nM.
For the compound `COc1ccccc1-c1ncc(C2(NC(=O)O[C@H]3CCN(C)C3)CCN(c3ccc(C(F)(F)F)cc3C#N)CC2)cc1F` [Compound 2-49, (3S)-1-methylpyrrolidin-3-yl N-{1-[2-cyano-4-(trifluoromethyl)phenyl]-4-[5-fluoro-6-(2-methoxyphenyl)pyridin-3-yl]piperidin-4-yl}carbamate], the Ki was less than 10 nM.
As to `CCOc1ncccc1-c1ccc(C2(NC(=O)[C@H]3CCN(C)C3)CCN(c3ccc(C(F)(F)F)cc3C#N)CC2)cn1` [Compound 2-9, (3S)—N-{1-[2-cyano-4-(trifluoromethyl)phenyl]-4-{2′-ethoxy-[2,3′-bipyridin]-5-yl}piperidin-4-yl}-1-methylpyrrolidine-3-carboxamide], the Ki was less than 10 nM.
For `COc1ccccc1-c1ccc(C2(C(=O)NC[C@@H]3C[C@H](F)CN3C)CCN(c3ccc(C(F)(F)F)cc3C#N)CC2)cn1` [Compound 1-249, 1-[2-cyano-4-(trifluoromethyl)phenyl]-N-{[(2S,4S)-4-fluoro-1-methylpyrrolidin-2-yl]methyl}-4-[6-(2-methoxyphenyl)pyridin-3-yl]piperidine-4-carboxamide] the value was less than 10 nM; for `CN1CC[C@H](NC(=O)C2(c3ccc(-c4cccc(F)c4C#N)nc3)CCN(c3ccc(C(F)(F)F)cc3C#N)CC2)C1` [Compound 1-148, 4-[6-(2-cyano-3-fluorophenyl)pyridin-3-yl]-1-[2-cyano-4-(trifluoromethyl)phenyl]-N-[(3S)-1-methylpyrrolidin-3-yl]piperidine-4-carboxamide], 10 to 100 nM; for `CCOc1ncccc1-c1ccc(C2(C(=O)NCC3CN(C)C3)CCN(c3ccc(C(F)(F)F)cc3C#N)CC2)cn1` [Compound 1-18, 1-[2-cyano-4-(trifluoromethyl)phenyl]-4-{2′-ethoxy-[2,3′-bipyridin]-5-yl}-N-[(1-methylazetidin-3-yl)methyl]piperidine-4-carboxamide], less than 10 nM.
Regarding `CN1CC[C@@H](NC(=O)C2(c3ccc(-c4cccc5ccn(C)c45)nc3)CCN(c3ccc(C(F)(F)F)cc3C#N)CC2)C1` [Compound 1-190, 1-[2-cyano-4-(trifluoromethyl)phenyl]-4-[6-(1-methyl-1H-indol-7-yl)pyridin-3-yl]-N-[(3R)-1-methylpyrrolidin-3-yl]piperidine-4-carboxamide], the Ki was 10 to 100 nM.
For `COc1ccccc1-c1ncc(C2(C(=O)NCCCN(C)C)CCN(c3ccc(C(F)(F)F)cc3C#N)CC2)cc1F` [Compound 1-199, 1-[2-cyano-4-(trifluoromethyl)phenyl]-N-[3-(dimethylamino)propyl]-4-[5-fluoro-6-(2-methoxyphenyl)pyridin-3-yl]piperidine-4-carboxamide] the value was less than 10 nM; for `CN1CC[C@@H](NC(=O)C2(c3ccc(-c4cccc(F)c4O)nc3)CCN(c3ccc(C(F)(F)F)cc3C#N)CC2)C1` [Compound 1-129, 1-[2-cyano-4-(trifluoromethyl)phenyl]-4-[6-(3-fluoro-2-hydroxyphenyl)pyridin-3-yl]-N-[(3R)-1-methylpyrrolidin-3-yl]piperidine-4-carboxamide], 10 to 100 nM; for `CCOc1ccccc1-c1ccc(C2(NC(=O)C3CN(C)C3)CCN(c3ccc(C(F)(F)F)cc3C#N)CC2)cn1` [Compound 2-35, N-{1-[2-cyano-4-(trifluoromethyl)phenyl]-4-[6-(2-ethoxyphenyl)pyridin-3-yl]piperidin-4-yl}-1-methylazetidine-3-carboxamide], less than 10 nM.
Regarding `CCOc1ncccc1-c1ccc(C2(NC(=O)CCN)CCN(c3ccc(C(F)(F)F)cc3C#N)CC2)cn1` [Compound 2-4, 3-amino-N-{1-[2-cyano-4-(trifluoromethyl)phenyl]-4-{2′-ethoxy-[2,3′-bipyridin]-5-yl}piperidin-4-yl}propanamide], the Ki is less than 10 nM.
As to `CN1CC(CNC(=O)C2(c3ccc(-c4cccn4C)nc3)CCN(c3ccc(C(F)(F)F)cc3C#N)CC2)C1` [Compound 1-220, 1-[2-cyano-4-(trifluoromethyl)phenyl]-4-[6-(1-methyl-1H-pyrrol-2-yl)pyridin-3-yl]-N-[(1-methylazetidin-3-yl)methyl]piperidine-4-carboxamide], the Ki was less than 10 nM.
In the case of `CCOc1ncccc1-c1ccc(C2(C(=O)N[C@H]3CCN(C)C3)CCN(c3ccc(C#N)cc3C#N)CC2)cn1` [Compound 1-40, 1-(2,4-dicyanophenyl)-4-{2′-ethoxy-[2,3′-bipyridin]-5-yl}-N-[(3S)-1-methylpyrrolidin-3-yl]piperidine-4-carboxamide], the Ki is less than 10 nM.
Then `CCOc1ncccc1-c1ccc(C2(C(=O)NCCN(C)C)CCN(c3ccc(C(F)(F)F)cc3C#N)CC2)cn1` [Compound 1-15, 1-[2-cyano-4-(trifluoromethyl)phenyl]-N-[2-(dimethylamino)ethyl]-4-{2′-ethoxy-[2,3′-bipyridin]-5-yl}piperidine-4-carboxamide], with 10 to 100 nM; and `CCOc1ncccc1-c1ccc(C2(NC(=O)[C@H]3CCN(C)C3)CCN(c3ccc(Cl)cc3C#N)CC2)cn1` [Compound 2-39, (3S)—N-[1-(4-chloro-2-cyanophenyl)-4-{2′-ethoxy-[2,3′-bipyridin]-5-yl}piperidin-4-yl]-1-methylpyrrolidine-3-carboxamide], with less than 10 nM; and `CCOc1ncccc1-c1ncc(C2(C(=O)N[C@@H]3CCN(C)C3)CCN(c3ccc(C(F)(F)F)cc3C#N)CC2)cn1` [Compound 1-107, 1-[2-cyano-4-(trifluoromethyl)phenyl]-4-[2-(2-ethoxypyridin-3-yl)pyrimidin-5-yl]-N-[(3R)-1-methylpyrrolidin-3-yl]piperidine-4-carboxamide], with less than 10 nM.
With `COc1ncccc1-c1ccc(C2(C(=O)N[C@H]3CCN(C)C3)CCN(c3ccc(C(F)(F)F)cc3Cl)CC2)cn1` [Compound 1-142, 1-[2-chloro-4-(trifluoromethyl)phenyl]-4-{2′-methoxy-[2,3′-bipyridin]-5-yl}-N-[(3S)-1-methylpyrrolidin-3-yl]piperidine-4-carboxamide], the Ki was less than 10 nM.
In the case of `CCOc1ccc(F)cc1-c1ccc(C2(C(=O)N[C@@H]3CCN(C)C3)CCN(c3ccc(C(F)(F)F)cc3C#N)CC2)cn1` [Compound 1-69, 1-[2-cyano-4-(trifluoromethyl)phenyl]-4-[6-(2-ethoxy-5-fluorophenyl)pyridin-3-yl]-N-[(3R)-1-methylpyrrolidin-3-yl]piperidine-4-carboxamide], the Ki is less than 10 nM.
For `CN1CC[C@H](NC(=O)C2(c3ccc(-c4cccn4C)nn3)CCN(c3ccc(C(F)(F)F)cc3Cl)CC2)C1` [Compound 1-169, 1-[2-chloro-4-(trifluoromethyl)phenyl]-4-[6-(1-methyl-1H-pyrrol-2-yl)pyridazin-3-yl]-N-[(3S)-1-methylpyrrolidin-3-yl]piperidine-4-carboxamide] the value was less than 10 nM; for `CCOC(=O)N1CC[C@H](NC(=O)C2(c3ccc(-c4cccn4C)nc3)CCN(c3ccc(C(F)(F)F)cc3C#N)CC2)C1` [Compound 1-184, ethyl (3S)-3-{1-[2-cyano-4-(trifluoromethyl)phenyl]-4-[6-(1-methyl-1H-pyrrol-2-yl)pyridin-3-yl]piperidine-4-amido}pyrrolidine-1-carboxylate], 100 to 1000 nM.
Consider `COc1ncccc1-c1ccc(C2(C(=O)N[C@H]3CCN(C)C3)CCN(c3ccc(C(F)(F)F)cc3C#N)CC2)cn1` [Compound 1-179, 1-[2-cyano-4-(trifluoromethyl)phenyl]-4-{2′-methoxy-[2,3′-bipyridin]-5-yl}-N-[(3S)-1-methylpyrrolidin-3-yl]piperidine-4-carboxamide], for which the Ki was less than 10 nM.
On to `CCOc1ncccc1-c1ncc(C2(C(=O)N[C@H]3CCN(C)C3)CCN(c3ccc(C(F)(F)F)cc3C#N)CC2)cn1` [Compound 1-106, 1-[2-cyano-4-(trifluoromethyl)phenyl]-4-[2-(2-ethoxypyridin-3-yl)pyrimidin-5-yl]-N-[(3S)-1-methylpyrrolidin-3-yl]piperidine-4-carboxamide], for which the Ki was less than 10 nM.
As to `CN1CC[C@@H](NC(=O)C2(c3ccc(-c4cc(F)ccc4F)nc3)CCN(c3ccc(C(F)(F)F)cc3C#N)CC2)C1` [Compound 1-68, 1-[2-cyano-4-(trifluoromethyl)phenyl]-4-[6-(2,5-difluorophenyl)pyridin-3-yl]-N-[(3R)-1-methylpyrrolidin-3-yl]piperidine-4-carboxamide], the Ki is less than 10 nM.
Take `CCOc1ncccc1-c1ccc(C2(C(=O)NCCNC)CCN(c3ccc(C(F)(F)F)cc3C#N)CC2)cn1` [Compound 1-14, 1-[2-cyano-4-(trifluoromethyl)phenyl]-4-{2′-ethoxy-[2,3′-bipyridin]-5-yl}-N-[2-(methylamino)ethyl]piperidine-4-carboxamide]: the Ki is less than 10 nM.
